Assay results: article PMC8509428, “The Phenoxyalkyltriazine Antagonists for 5-HT6 Receptor with Promising Procognitive and Pharmacokinetic Properties In Vivo in Search for a Novel Therapeutic Approach to Dementia Diseases” (International Journal of Molecular Sciences, 2021)

What was measured:
rats = test: Exploratory activity measured in the EPM test; format: in vivo, rat; conditions: mean ± SEM
Experimental: The experiment was performed using an EPM apparatus (details see above). Total ambulation (the total distance covered by a rat, and ambulation along X and Y axis) was taken to discern drug effects on general activity from those on open-arm exploration, during a 5-min test period (i.e., the time equal to the observation period in the EPM test). Rats’ behavior was not videotaped during the test.

5-HT7R = conditions: ± SD; read-out: Ki 5-HT7 (converted); cited from earlier work
[1] = system: MK-801-induced memory deficits in rats; test: Novel object recognition (NOR) test, MK-801-induced memory impairment; format: in vivo, rat; conditions: for Total Exploratory Time in T2 Session: mean ± SEM; for minimal effective dose in NOR test: i.p., reversal of MK-801-induced memory impairment
Experimental: Five days before the experiment, the rats were transferred to the laboratory, labelled and, thereafter, left to acclimate to the new environment. The animals were handling every five days before experiments to minimize the stress reaction. The protocol was adapted from the original work. The test session comprising of two trials separated by an inter-trial interval (ITI) of 1 h was carried out after 2 days of the training session. During the first trial (familiarization, T1) two identical objects (A1 and A2) were presented in the opposite corners of the open field, approximately 10 cm from the walls. During the second trial (recognition, T2) one of the A objects was replaced by a novel object B, so that the animals were presented with the A = familiar and B = novel objects. Both trials lasted for 3 min and the animals were returned to their home cages after T1.
The objects used were the metal Coca-Cola cans and the glass jars filled with sand. […] The sequence of presentations and the location of the objects were randomly assigned to each rat. After each measurement, the floor was cleaned and dried.
The animals explored the objects by looking, licking, sniffing or touching the object but not when leaning against, standing or sitting on the object. Any rat exploring the two objects for less than 5 s within 3 min of T1 or T2 was eliminated from the study. The exploration time of the objects was measured by a blind experimenter. Based on the exploration time (E) of two objects during T2, the discrimination index (DI) was calculated according to the formula: DI = (EB − EA)/(EA + […]). Using this metric, scores approaching zero reflects no preference while positive values reflect a preference for the novel object and negative numbers reflect a preference for the familiar.
MK-801, used to attenuate learning, was administered at the dose of 0.1 mg/kg (i.p.) 30 min before the familiarization phase (T1), while investigated compounds were given 60 min before T1 session. In such scheme of experiment we could observe the impact of investigated compounds on the one type of rats’ memory—episodic memory and one phase of memory process—[…].
The total exploration time in T2 was used to express the influence of the treatment on the exploratory activity of the animals.

[2] = Metabolic stability in rat liver microsomes; format: in vitro ADME
Experimental: The tested 5-HT6R ligands (50 µM) were incubated in the presence of RLMs (1 mg/mL) in 10 mM Tris–HCl buffer (37 °C). The LC/MS analyses with additional MS ion fragmentation of the products and substrates were performed to determine the most probable structures of 5-HT6R ligands’ metabolites. LC/MS Waters ACQUITY™ TQD system with the TQ Detector (Waters, Milford, CT, USA).

dopaminergic receptor D2 = conditions: ± SD; cited from earlier work
SH-SY5Y cells = test: Intracellular ROS, DCFH-DA assay (neuroprotection); format: cell-based, human; conditions: SH-SY5Y neuroblastoma cells
Experimental: ROS measurement was assayed by 2′,7′-Dichlorofluorescin diacetate (DCFH-DA, Sigma D6883). […] Briefly, SH-SY5Y cells (4 × 10^3 cells/well) were seeded in a black-sided, clear-bottom 384-well plate (Life Technologies, Warsaw, Poland) in DMEM without phenol red (Life Technologies, Warsaw, Poland) supplemented with 5% FBS and cultured for 24 h. The next day, the medium was removed, the cells were washed once with HBSS and treated for 45 min with non-fluorescent dye DCFH-DA (final concentration 25 μM, freshly prepared in warm HBSS). […] After that, toxic agents were added: H2O2 (200 μM), oxaliplatin (OXA, 25 μM) and rotenone (ROT, 32.5 μM) and the cells were incubated for 5 h. In our preliminary experiments, different concentration of toxic agents was tested to choose the convenient one that leads to 50% cell death. As a positive control, the cells were incubated alone with toxic agents. As a vehicle control, the cells were incubated with HBSS with 0.1% DMSO. In the presence of ROS, the non-fluorescent dye DCFH-DA is oxidized, producing fluorescent dichlorofluorescein (DCF). Fluorescence was measured at Ex/Em = 485/535 nm using the microplate reader EnSpire.

human 5-HT6R = conditions: ± SD; read-out: Ki 5-HT6 (converted); cited from earlier work
PAMPA permeability = format: in vitro ADME; conditions: PBS pH 7.4, 5 h, triplicate, read-out: Pe (PAMPA permeability coefficient) ± SD
Experimental: The 96-well Pre-coated PAMPA Plate System Gentest™ that was used was obtained from Corning (Tewksbury, MA, USA). […] 200 μL/well of PBS was added to the acceptor wells. All compounds were analyzed in triplicate. The plate was incubated at room temperature for 5 h. Then, the 50 μL was aspirated from each well and diluted next with 50 µL solution of an internal standard (IS). The compounds’ concentrations in acceptor and donor wells were estimated by the UPLC-MS analyses, which were performed by LC/MS Waters ACQUITY™ TQD system with the TQ Detector (Waters, Milford, CT, USA). The permeability coefficients (Pe, cm/s) were calculated according described previously formulas.

CYP3A4 = target: T1, CYP3A4 (Homo sapiens, UniProt P08684); test: CYP3A4 P450-Glo assay; format: in vitro ADME
T1 construct: purchased Promega
T1 sequence (P08684 whole entry): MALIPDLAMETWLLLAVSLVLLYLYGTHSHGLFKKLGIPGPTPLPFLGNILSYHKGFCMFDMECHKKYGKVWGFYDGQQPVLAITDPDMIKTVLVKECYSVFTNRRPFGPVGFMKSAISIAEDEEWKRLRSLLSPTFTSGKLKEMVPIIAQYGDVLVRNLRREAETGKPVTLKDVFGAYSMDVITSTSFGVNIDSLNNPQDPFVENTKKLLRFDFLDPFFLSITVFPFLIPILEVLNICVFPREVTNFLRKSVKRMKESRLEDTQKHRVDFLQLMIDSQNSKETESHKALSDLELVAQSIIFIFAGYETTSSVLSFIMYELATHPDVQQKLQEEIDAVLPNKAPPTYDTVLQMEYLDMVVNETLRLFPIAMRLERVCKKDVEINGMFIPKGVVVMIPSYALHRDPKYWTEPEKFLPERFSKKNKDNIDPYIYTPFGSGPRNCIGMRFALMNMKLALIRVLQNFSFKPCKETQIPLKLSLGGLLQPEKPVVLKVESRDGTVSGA
Experimental: The luminescent CYP3A4 P450-Glo™ Promega® (Madison, WI, USA) was used for the investigation of potential drug-drug interactions. All assays and protocols were described before. The compounds were tested in triplicate at the final concentrations in the range from 0.01 to 25 μM. The luminescent signal was measured by using a microplate reader EnSpire PerkinElmer (Waltham, MA, USA).

[3] = 0.3 mg/kg i.p. + MK-801 0.1 mg/kg
[4] = 1 mg/kg i.p. + MK-801 0.1 mg/kg
[5] = 3 mg/kg i.p. + MK-801 0.1 mg/kg
[6] = estimated from MS spectra supported by in silico data

SMILES | Total Distance (rats; 0.3 mg/kg i.p.) | X Ambulation (rats; 0.3 mg/kg i.p.) | Y Ambulation (rats; 0.3 mg/kg i.p.) | Total Distance (rats; 1 mg/kg i.p.) | X Ambulation (rats; 1 mg/kg i.p.) | Y Ambulation (rats; 1 mg/kg i.p.) | Total Distance (rats; 3 mg/kg i.p.) | X Ambulation (rats; 3 mg/kg i.p.) | Y Ambulation (rats; 3 mg/kg i.p.) | Ki (5-HT7R) | Total Exploratory Time in T2 Session [1, 3] | Total Exploratory Time in T2 Session [1, 4] | Total Exploratory Time in T2 Session [1, 5] | minimal effective dose in NOR test [1] | parent compound remaining in the reaction mixture (Area%) ([2]; RLMs, 120 min incubation) | Metabolic Pathway, metabolite M1 [2, 6] | Metabolic Pathway, metabolite M2 [2, 6] | Ki (dopaminergic receptor D2) | protective activity against rotenone-induced neurotoxicity (SH-SY5Y cells) | Ki (human 5-HT6R) | other results
CCC(Oc1cccc(Cl)c1Cl)c1nc(N)nc(N2CCN(C)CC2)n1 (racemic) [Compound 2, (RS)-4-[1-(2,3-dichlorophenoxy)propyl]-6-(4-methylpiperazin-1-yl)-1,3,5-triazin-2-amine] | 4372 ± 132 cm | 180 ± 9 | 101 ± 9 | 3987 ± 281 cm | 149 ± 18 | 78 ± 9 | 4595± 191 F(3,23) = 2.9772; NS cm | 168 ± 6 F(3,23) = 1.9417; NS | 115 ± 7 F(3,23) = 3.1727; NS | 5200 nM | 52.67 ± 5.37 s | 40.33 ± 6.66 s | 42.88 ± 2.10 F(4,27) = 3.5450; p < 0.05 s | 0.3 mg/kg | 80% | hydroxylation | hydroxylation | 421 nM | protective activity | 6 ± 2 nM | parent structure biotransformed ([2]; RLMs, 120 min incubation): 20%; Metabolic Pathway, metabolite M3 [2, 6]: demethylation; Papp at 5 h (PAMPA permeability): 20.5 ± 5.4 ×10⁻⁶ cm/s; inhibition against CYP3A4 (CYP3A4; all tested concentrations (0.1 to 25 μM)): did not display an inhibition
CCC(Oc1ccccc1)c1nc(N)nc(N2CCN(C)CC2)n1 (racemic) [Compound 3, (RS)-4-(4-methylpiperazin-1-yl)-6-(1-phenoxypropyl)-1,3,5-triazin-2-amine] | 4033 ± 340 cm | 151 ± 16 | 80 ± 8 | 4102 ± 291 cm | 136 ± 15 | 86 ± 10 | 3545 ± 136 F(3,22) = 0.9071; NS cm | 123 ± 5 F(3,22) = 0.6336; NS | 73 ± 5 F(3,22) = 0.3805; NS | 19900 nM | 38.14 ± 4.18 s | 35.57 ± 3.76 s | 34.14 ± 1.22; F(5,47) = 1.9394; NS s | 0.1 mg/kg | 95.7% | decomposition and triple hydroxylation | hydroxylation | 1510 nM | protective activity | 21 nM | Total Exploratory Time in T2 Session ([1]; 0.1 mg/kg i.p. + MK-801 0.1 mg/kg): 47.33 ± 4.79 s; Papp at 5 h (PAMPA permeability): 15.1 ± 1 ×10⁻⁶ cm/s; CYP3A4 activity remaining (CYP3A4; 10 μM of compound): 64%
